Where two headings read alike, the source gives them in different places. Bounds are passed on as bounds.

The target of one data set is T1, human TDO (Homo sapiens, UniProt P48775).
T1 construct: hexahistidine (C); made in house; host or cells: Escherichia coli
Kind of data set: human TDO biochemical assay (NFK GreenScreen). The conditions noted are these: biochemical. How it is done:
(§1) Full-length recombinant human and mouse IDO1 were expressed in Escherichia coli with a hexahistidine tag at the N-terminus, and purified by affinity chromatography to > 95% purity, as described ([8]). Human and mouse TDO containing a C-terminal hexahistidine tag were analogously expressed and purified to > 95% purity ([8]). The inhibitory activity of compounds was determined with the NFK GreenScreen assay technology under the conditions as described ([8]), except for the reaction buffer for IDO1, which was replaced by 50 mM NaH2PO4, pH 7.0, supplemented with 0.01% Tween-20 and 1% glycerol. Inhibition of the CYP3A4 and CYP2D6 enzymes was determined with the P450-Glo™ Screening System with Luciferin-IPA (Promega, #V9920 and V9890). For determination of IC50 values, the effect of inhibitors was determined in 10-point duplicate dose-response curves. Graphs were fitted to a four-parameter logistics equation in XLfit (ID Business Solutions, Ltd., Guildford, UK) from which IC50 values were calculated.

The target of another data set is T2, SW48 (hTDO) (Homo sapiens, UniProt P48775).
T2 construct: host or cells: SW48 cells
Kind of data set: cell-based assay, Trp-catabolizing activity in SW48 cells.

The target of the next data set is T3, hWB + IFNγ (hIDO1) (Homo sapiens, UniProt P14902).
T3 construct: from tissue; host or cells: heparinized human whole blood from healthy donors, IFNγ-stimulated
Kind of data set: human whole blood assay, Trp-catabolizing activity after IFNγ stimulation. Format: cell-based. The conditions noted are these: human whole blood from healthy donors.

The target of a further data set is T4, CYP2D6 (Homo sapiens, UniProt P10635).
T4 construct: purchased Promega V9890
The data set is described as follows: CYP2D6 inhibition (P450-Glo). Format: in vitro ADME. The conditions noted are these: 10 µM. How it is done:
as §1

The subject of data set [1] is CT26 cells implanted subcutaneously into female BALB/c mice. The data set is described as follows: CT26 mouse model, second study (Charles River). Format: in vivo. How it is done: For the second study, performed at Charles River Laboratories, 3 × 10^5 CT26 cells were implanted subcutaneously into female BALB/c mice on day 0. […] Tumor growth was monitored using caliper measurement 3 times weekly. A tumor volume of 2000 mm^3 was used as the endpoint of the experiment for the individual animals. Tumors were sampled 2 h post last dose.
Tissues were homogenized in PBS at a ratio of 1 mg per 10 μl using micro pellet pestles mounted on a Micro-Tube Homogenizer System (Thomas Scientific). After centrifugation, proteins were removed from the homogenized tissue supernatants and plasma samples by precipitation with methanol. The concentrations of inhibitor, Trp and Kyn were determined by LC-MS/MS.

The nature of data set [2]: in vivo pharmacokinetics, mouse. The conditions noted are these: male; for clearance / Vd: intravenous; for Vd: read-out: Vss. On the set-up: species or system male CD-1 mice. On the procedure: (§2) Pharmacokinetic properties of NTRC 3883-0 were determined in plasma following single oral (p.o.) and i.v. administration to male CD-1 mice (n = 6 per treatment group with three mice sampled per time point), Wistar rats (n = 3), cynomolgus monkey (n = 1) and Beagle dogs (n = 3). Formulations were prepared in DMSO, Kolliphor® EL, 5% D-mannitol in Elix water at a volume ratio of 1:1:8 for i.v. administration, and in 0.5% gelatin, 5% D-mannitol in Elix water for p.o. administration. Plasma samples were collected at eight to eleven time points up to 24 h after administration. Pharmacokinetic properties and required dosing in humans were predicted by allometric scaling by Karin Jorga Life Science Consulting (Basel, Switzerland) ( Figure S2 and Table S2 ).

Data set [3] is described as follows: human pharmacokinetics predicted by allometric scaling. The settings on record: predicted parameters, assuming 100% bioavailability. How it is done: as §2
Table S2. Pharmacokinetic parameters of NTRC 3883-0 observed in mouse, rat, monkey and dog, and predicted for humans using allometric scaling. Data in bold are measured, while data in italics are calculated or predicted (for humans). The clearance (Cl) and volume of distribution at steady state (Vss) in humans are predicted based on extrapolation of the parameters in the four species as shown in Supplementary Figure S2. […] The half-life (t1/2) in humans was predicted as Vss/Cl. […] ND = not determined.

The nature of data set [4]: plasma protein binding, mouse. Format: in vitro ADME. On the procedure: Supplement DataSheet_1.docx, table 2: Table S2. Pharmacokinetic parameters of NTRC 3883-0 observed in mouse, rat, monkey and dog, and predicted for humans using allometric scaling. Data in bold are measured, while data in italics are calculated or predicted (for humans). The clearance (Cl) and volume of distribution at steady state (Vss | column: Mouse

Data set [5] concerns IFNγ-stimulated adherent cell samples isolated from ascites of ovarian cancer patients. The data set is described as follows: Trp-catabolizing activity in IFNγ-stimulated ascites cell samples. Format: cell-based. The conditions noted are these: Homo sapiens. On the procedure: Ascites was collected from patients with a primary diagnosis of advanced epithelial ovarian cancer during paracentesis for diagnostics or symptom relieve, or during primary debulking surgery. Ascites was filtered and cells were collected by centrifugation as described ([23]). To enrich for tumor cells, ascites cell samples were allowed to adhere overnight to tissue culture plastic. The cell samples were then cultured for 2–3 weeks in advanced RPMI medium (ThermoFisher), supplemented with 10% FBS, 1% glutamax and 1% P/S, with 2 or 3 times passaging of the cells. qPCR analyses of the MUC16, HE4, IDO1, and TDO2 genes were performed for all samples as described above. Five samples which could be cultured over multiple passages were analyzed for cell surface expression of mucin-16 and EpCAM by flow cytometry using FITC-conjugated anti-mucin-16 (AssayPro, #32189-05141) and APC-conjugated anti-EpCAM (Miltenyi, #130-111-117, RRID: AB_2657496) to assure that the cell cultures consisted of malignant cells. IDO1 mRNA and protein levels in these samples were analyzed as described above after incubation with or without 200 ng/ml IFNγ for 24 h. The collection of ascites and the research described was conducted with approval of the medical ethical committee of the Radboud university medical center and informed written consent from each subject.

The target of another data set is B16F10-mIDO1 (Mus musculus, UniProt P28776). The data set is described as follows: cell-based assay, Trp-catabolizing activity in B16F10-mIDO1 cells.
Where [6] appears, read: CD-1, plasma, mouse, body weight 0.036 kg.

T2 sequence (P48775 whole entry): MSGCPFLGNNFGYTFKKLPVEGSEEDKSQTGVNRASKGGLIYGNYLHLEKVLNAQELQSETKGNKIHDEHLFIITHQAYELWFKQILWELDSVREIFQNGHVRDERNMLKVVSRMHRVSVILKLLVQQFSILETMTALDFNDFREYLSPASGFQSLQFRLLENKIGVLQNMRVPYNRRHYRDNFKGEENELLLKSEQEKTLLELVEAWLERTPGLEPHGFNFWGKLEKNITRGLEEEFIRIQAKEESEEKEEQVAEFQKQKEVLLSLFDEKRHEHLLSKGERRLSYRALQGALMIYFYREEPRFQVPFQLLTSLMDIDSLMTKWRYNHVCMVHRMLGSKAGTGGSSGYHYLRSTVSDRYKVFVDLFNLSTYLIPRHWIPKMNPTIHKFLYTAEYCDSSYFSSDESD
T1 sequence (P48775 whole entry): as above
Chain of B16F10-mIDO1 (P28776 whole entry): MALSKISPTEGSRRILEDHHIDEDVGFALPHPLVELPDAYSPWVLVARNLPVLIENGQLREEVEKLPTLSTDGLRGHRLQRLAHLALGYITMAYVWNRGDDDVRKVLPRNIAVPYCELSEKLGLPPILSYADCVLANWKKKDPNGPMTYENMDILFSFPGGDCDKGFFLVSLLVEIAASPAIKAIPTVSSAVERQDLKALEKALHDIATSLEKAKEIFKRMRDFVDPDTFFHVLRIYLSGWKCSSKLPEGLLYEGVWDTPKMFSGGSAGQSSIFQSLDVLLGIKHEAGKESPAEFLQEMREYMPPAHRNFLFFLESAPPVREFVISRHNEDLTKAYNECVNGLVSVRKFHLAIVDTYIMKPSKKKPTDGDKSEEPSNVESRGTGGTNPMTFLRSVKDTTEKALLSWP
T4 sequence (P10635 whole entry): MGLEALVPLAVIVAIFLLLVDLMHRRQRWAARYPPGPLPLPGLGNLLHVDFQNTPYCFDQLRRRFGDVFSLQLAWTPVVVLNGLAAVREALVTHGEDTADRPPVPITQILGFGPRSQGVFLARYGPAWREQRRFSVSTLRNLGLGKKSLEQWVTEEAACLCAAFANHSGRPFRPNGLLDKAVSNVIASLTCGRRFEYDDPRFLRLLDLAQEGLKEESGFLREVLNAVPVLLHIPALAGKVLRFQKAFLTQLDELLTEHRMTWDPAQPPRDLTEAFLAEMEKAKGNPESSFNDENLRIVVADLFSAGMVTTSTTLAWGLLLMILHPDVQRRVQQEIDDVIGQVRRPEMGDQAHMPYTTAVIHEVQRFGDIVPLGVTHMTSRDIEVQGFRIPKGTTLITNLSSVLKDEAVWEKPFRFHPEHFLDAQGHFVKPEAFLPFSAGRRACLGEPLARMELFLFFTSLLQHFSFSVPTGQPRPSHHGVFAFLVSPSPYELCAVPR
T3 sequence (P14902 whole entry): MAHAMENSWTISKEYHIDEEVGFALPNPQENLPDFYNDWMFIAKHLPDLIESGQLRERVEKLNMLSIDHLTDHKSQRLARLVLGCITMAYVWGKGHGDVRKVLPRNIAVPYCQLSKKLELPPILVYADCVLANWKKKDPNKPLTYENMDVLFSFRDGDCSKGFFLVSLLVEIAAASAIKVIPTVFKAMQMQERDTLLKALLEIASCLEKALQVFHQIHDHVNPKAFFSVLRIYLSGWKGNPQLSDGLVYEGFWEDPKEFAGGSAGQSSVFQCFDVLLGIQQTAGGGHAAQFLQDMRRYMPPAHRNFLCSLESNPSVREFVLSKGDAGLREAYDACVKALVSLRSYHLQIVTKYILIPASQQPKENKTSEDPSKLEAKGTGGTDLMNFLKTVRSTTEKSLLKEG

For orientation: inhibition means the drop in the measured response relative to a control, in per cent. A word on the IC50: it is the concentration needed to halve the response being measured. As usually defined, the half-life is how long it takes for the measured level to halve. By clearance is commonly meant the volume of plasma or blood freed of the substance per unit of time. Read a low clearance as a low capacity for elimination. What is called fraction unbound is free concentration divided by total concentration. For `O=C1CN(C(=O)c2c(F)cccc2F)[C@H](c2cccc(Br)c2)N1O` [NTRC 3883-0], the inhibition at 31.6 µM at human TDO (@ 31,600 nM, read-out: inhibition hTDO) was below 20%; on SW48 (hTDO) (SW48, @ 31,600 nM), below 20%. In addition, at human TDO (highest tested concentration 31.6 µM), the “activity on human TDO (in words)” value was “inactive”. Also, at SW48 (hTDO) (constitutively expresses TDO), the “effect on Trp-catabolizing activity in SW48 (in words)” value is on record as “no effect”. Besides, the IC50 on hWB + IFNγ (hIDO1) came out at 378 nM; in data set [5] (IFNγ-stimulated samples, read-out: IC50), 261 nM; in [5] (IFNγ-stimulated, read-out: IC50 ASC 009) it was 236 nM; in data set [5] (IFNγ-stimulated, read-out: IC50 ASC 010), 294 nM; in data set [5] (IFNγ-stimulated, read-out: IC50 ASC 013), 237 nM; in data set [5] (IFNγ-stimulated, read-out: IC50 ASC 031), 271 nM. Also, the IC50 amounted to 321 nM in data set [5] (IFNγ-stimulated, read-out: IC50 ASC 041) and 18 nM against B16F10-mIDO1. Besides, the “inhibition of CYP2D6 activity” value against CYP2D6 is given as “did not inhibit”. In data set [1] (100 mg/kg p.o. b.i.d. from day 8), the tumor growth entry is listed as “no inhibition of tumor growth”. For the same molecule, in data set [1] (LC-MS/MS, 2 h post last dose, 100 mg/kg p.o. b.i.d.), the “Kyn levels in the tumor” value is reported as “considerable reduction of Kyn levels”. Further, in [2] (CD-1, mouse, plasma), the half-life is 5.2 h. The clearance was 18.5 mL/min/kg in data set [2] (CD-1, mouse, plasma) and 0.667 mL/min in data set [2] (setting [6]). Besides, the Vd in [2] (CD-1, mouse, plasma) worked out at 3.63 L/kg; in data set [2] (setting [6]), 0.131 L. In [3], the “minimum dose required to reach a target concentration of 1 μM on average during the dosing interval” value is listed as 1725 mg per day. In addition, in [4], the free fraction (fraction unbound) is 0.46. For the same molecule, the “times more potent compared to epacadostat in B16F10-mIDO1 assay” value on B16F10-mIDO1 amounted to 5 times.

(Values after paper PMC7876453, “Targeting Indoleamine 2,3-Dioxygenase in Cancer Models Using the Novel Small Molecule Inhibitor NTRC 3883-0” (Frontiers in Immunology, 2021).)
